Values of other authors, collected in publication PMC5409479 (The Journal of Biological Chemistry, 2017).

Assays:
[1] = test system: GCGR, mutation of Trp-36 to Ala; settings: GCGR Trp-36 to Ala; significantly increased expression
Text: (§1) This could also move residues Thr-35, Trp-39, Tyr-88, Leu-89, Pro-90, and Trp-91 away from the peptide interface observed in the crystal structure, while bringing Trp-33 and Arg-40 into closer proxim ...

[2] = test system: GLP-1R, mutation of Arg-40 to Ala
Text: as §1

[3] = test system: GLP-1R, mutation of Trp-39 to Ala or Phe; settings: expression comparable with wild type
Text: as §1

GLP-1R L89A = test system: GLP-1R L89A; set-up: method as in PMID 19861722
[4] = test system: GLP-1R, mutation of Glu-125 to Ala; set-up: method as in PMID 19815559, PMID 21868452, PMID 20529866

Substance: GCG: glucagon
- GCG binding (in words) [1]: no detectable binding of GCG

Substance: GLP-1(7–36)NH2: a high affinity agonist
- affinity and agonism (in words) (GLP-1R): a high affinity agonist

Substance: GLP-1(9–36)NH2
- affinity and agonism (in words) (GLP-1R): a low affinity partial agonist

Substance: GLP-1: cognate ligand of GLP-1R
- binding affinity of GLP-1 (in words) [2]: small decrease in binding affinity of GLP-1
- GLP-1 binding (in words) [3]: loss of detectable GLP-1 binding
- GLP-1 peptide binding (in words) (GLP-1R L89A): abolishing GLP-1 peptide binding
- GLP-1 binding affinity or function (in words) [4]: did not significantly impact GLP-1 binding affinity or function

Substance: exendin(9–39)
- affinity and agonism (in words) (GLP-1R): a high affinity antagonist
